Results reported in US20190053492A1, “SUBSTITUTED PYRIDINE COMPOUNDS AS PESTICIDES” (Bayer CropScience Aktiengesellschaft, priority 2016, published 2019).
Like-named read-outs stand apart in the source and are kept apart here.

Key:
[1] = log P by HPLC on reversed-phase column (C 18), EEC Directive 79/831 Annex V.A8; format: physicochemical; conditions: 55° C.; for LOGP_HCOOH: log P (HCOOH); for chromatographic logP: reversed-phase HPLC column (C 18)
Experimental: Temperature: 55° C. […] Called log P (HCOOH) in the table. […] Called log P (neutral) in the table.

Phaedon cochleariae = Phaedon cochleariae spray test; format: in vivo; conditions: after 7 days, Chinese cabbage leaf discs
Experimental: Phaedon cochleariae—Spray Test
(§1) Solvent: 78.0 parts by weight of acetone • • 1.5 parts by weight of dimethylformamide
(§2) Emulsifier: alkylaryl polyglycol ether
(§3) To produce a suitable active ingredient formulation, 1 part by weight of active ingredient is dissolved with the specified parts by weight of solvent and made up with water containing an emulsifier concentration of 1000 ppm until the desired concentration is attained. To produce further test concentrations, the formulation is diluted with emulsifier-containing water.
Discs of Chinese cabbage leaves (Brassica pekinensis) are sprayed with an active ingredient formulation of the desired concentration and, after drying, populated with larvae of the mustard beetle (Phaedon cochleariae).
After 7 days, the efficacy in % is determined. 100% means that all the beetle larvae have been killed; 0% means that no beetle larvae have been killed.

Spodoptera frugiperda = Spodoptera frugiperda spray test; format: in vivo; conditions: after 7 days, maize leaf discs
Experimental: Spodoptera frugiperda—Spray Test
as §1, §2, §3
Leaf discs of maize (Zea mays) are sprayed with an active ingredient formulation of the desired concentration and, after drying, populated with caterpillars of the armyworm (Spodoptera frugiperda).
After 7 days, the efficacy in % is determined. 100% means that all the caterpillars have been killed; 0% means that no caterpillar has been killed.

[2] = acidic range at pH 2.7, 0.1% aqueous formic acid and acetonitrile, HPLC on reversed-phase column (C 18)
[3] = log P, neutral range, HPLC on reversed-phase column (C 18)
[4] = acidic range pH 2.7, 0.1% aqueous formic acid and acetonitrile, reversed-phase column (C 18)
[5] = pH 2.7, LC-MS acidic range, pH 2.7, 0.1% formic acid/acetonitrile, read-out: log P (acidic) / log P (HCOOH)
[6] = Phaedon cochleariae, foliar, 168 h, application rate 500 g/ha, read-out: efficacy (beetle larvae killed)
[7] = log P (neutral), HPLC reversed-phase column (C 18)

LOGP_HCOOH [1, 2] | LOGP_NEUTRAL [1, 3] | LOGP_HCOOH [1, 4] | Compound | efficacy (caterpillars killed) (Spodoptera frugiperda; application rate 500 g/ha) | efficacy (beetle larvae killed) (Phaedon cochleariae; application rate 500 g/ha) | further results
3.45 | 3.35 | – | NC(=S)c1ccc(CNC(=O)c2cc(-c3ccc(OC(F)(F)F)cc3)cc(NC(=O)C3CC3)n2)cc1 [Example I-214] | 100% | – | efficacy (beetle larvae killed) (Phaedon cochleariae; application rate 100 g/ha): 83%; efficacy (caterpillars killed) (Spodoptera frugiperda; application rate 100 g/ha): 100%
– | 3.33 | 3.42 | N#Cc1ccc(CNC(=O)c2cc(-c3ccc(OC(F)(F)F)cc3)cc(NC(=O)C3CC3)n2)nc1 [Example I-106] | 100% | – | efficacy (beetle larvae killed) (Phaedon cochleariae; application rate 100 g/ha): 100%; efficacy (caterpillars killed) (Spodoptera frugiperda; application rate 100 g/ha): 80%
– | – | 4.17 | N#Cc1ccc(CNC(=O)c2cc(-c3ccc(C(F)(F)C(F)(F)F)c(F)c3F)cc(NC(=O)C3CC3)n2)cc1 [Example I-272] | – | 83% | –
– | 3.87 | 4.00 | N#Cc1cc(F)c(CNC(=O)c2cc(-c3ccc(C(F)(F)F)cc3)cc(NC(=O)C3CC3)n2)c(F)c1 [Example I-068] | 100% | 100% | efficacy (beetle larvae killed) (Phaedon cochleariae; application rate 100 g/ha): 100%; efficacy (caterpillars killed) (Spodoptera frugiperda; application rate 100 g/ha): 100%
– | 2.99 | – | N#Cc1ccc(CNC(=O)c2cc(-c3ccc(C(F)(F)F)nc3)cc(NC(=O)C3CC3)n2)cc1 [Example I-123, N-(4-Cyanobenzyl)-6′-[(cyclopropylcarbonyl)amino]-6-(trifluoromethyl)-3,4′-bipyridine-2′-carboxamide] | – | – | chromatographic logP [1, 5]: 3.02; chromatographic logP ([1]; pH 2.7, log P (HCOOH), acidic range at pH 2.7, 0.1% aqueous formic acid and acetonitrile, HPLC on reversed-phase column (C 18), read-out: LOGP_HCOOH): 3.13; pest or weed control at 500 g/ha (Phaedon cochleariae; [6]): 100%; pest or weed control at 500 g/ha (Spodoptera frugiperda; Spodoptera frugiperda, foliar, 168 h, application rate 500 g/ha, read-out: efficacy (caterpillars killed)): 100%
– | – | 3.24 | N#Cc1ccc(CNC(=O)c2cc(-c3ccc(F)cc3)cc(NC(=O)C3CC3)n2)cc1 [Example I-002] | – | 100% | –
– | 3.68 | 2.65 | CC(C)NC(=O)c1cc(-c2ccc(C(F)(F)F)cc2)cc(NC(=O)C2CC2)n1 [Example I-018] | 100% | 100% | efficacy (caterpillars killed) (Spodoptera frugiperda; application rate 100 g/ha): 83%
3.17 | 3.00 | – | NS(=O)(=O)c1ccc(CNC(=O)c2cc(-c3ccc(OC(F)(F)F)cc3)cc(NC(=O)C3CC3)n2)cc1 [Example I-186] | – | 100% | –
4.04 | 3.88 | – | N#Cc1ccc(CNC(=O)c2cc(-c3ccc(OC(F)(F)F)cc3)cc(NC(=O)C3(C#N)CC3)n2)cc1 [Example I-210] | – | 83% | efficacy (beetle larvae killed) (Phaedon cochleariae; application rate 100 g/ha): 83%
– | 3.85 | 3.98 | O=C(NCc1ccc([N+](=O)[O-])cc1)c1cc(-c2ccc(C(F)(F)F)cc2)cc(NC(=O)C2CC2)n1 [Example I-084] | – | 100% | –
– | – | 3.13 | N#CCCCONC(=O)c1cc(-c2ccc(OC(F)(F)F)cc2)cc(NC(=O)C2CC2)n1 [Example I-238] | – | 83% | –
3.39 | 3.34 | – | N#Cc1ccc(CNC(=O)c2cc(-c3ccc(C(F)F)c(F)c3)cc(NC(=O)C3CC3)n2)cc1 [Example I-222] | – | 100% | efficacy (beetle larvae killed) (Phaedon cochleariae; application rate 100 g/ha): 100%
– | – | 3.59 | O=C(NOCC1CC1)c1cc(-c2ccc(OC(F)(F)F)cc2)cc(NC(=O)C2CC2)n1 [Example I-236] | – | 100% | LOGP_NEUTRAL [1, 7]: 3.50
– | 3.83 | 3.87 | N#Cc1ccc(CNC(=O)c2cc(-c3ccc(I)cc3)cc(NC(=O)C3CC3)n2)cc1 [Example I-050] | – | 83% | –
– | 3.11 | 3.24 | N#Cc1ccc(CNC(=O)c2cc(-c3ccc(S(=O)(=O)C(F)(F)F)cc3)cc(NC(=O)C3CC3)n2)cn1 [Example I-097] | – | 100% | –
4.32 | 4.24 | – | N#Cc1ccc(CNC(=O)c2cc(-c3ccc(OC(F)(F)F)c(Cl)c3)cc(NC(=O)C3CC3)n2)cc1 [Example I-230] | – | – | efficacy (beetle larvae killed) (Phaedon cochleariae; application rate 100 g/ha): 83%
3.70 | 3.57 | – | N#Cc1ccc(CNC(=O)c2cc(-n3ccc(C(F)(F)C(F)(F)F)n3)cc(NC(=O)C3CC3)n2)cc1 [Example I-188, N-(4-Cyanobenzyl)-6-[(cyclopropylcarbonyl)amino]-4-[3-(pentafluoroethyl)-1H-pyrazol-1-yl]pyridine-2-carboxamide] | – | – | chromatographic logP [1, 5]: 3.7; chromatographic logP ([1]; pH 7.8, LC-MS neutral range, pH 7.8, ammonium hydrogencarbonate/acetonitrile, read-out: log P (neutral)): 3.57; pest or weed control at 100 g/ha (Phaedon cochleariae; Phaedon cochleariae, foliar, 168 h, application rate 100 g/ha, read-out: efficacy (beetle larvae killed)): 100%; pest or weed control at 500 g/ha (Phaedon cochleariae; [6]): 100%

LOGP_HCOOH [1, 2] | LOGP_NEUTRAL [1, 3] | LOGP_HCOOH [1, 4] | Compound | efficacy (caterpillars killed) (Spodoptera frugiperda; application rate 500 g/ha) | efficacy (beetle larvae killed) (Phaedon cochleariae; application rate 500 g/ha) | further results
– | 3.47 | 3.53 | O=C(NCc1ccc(Cl)nc1)c1cc(-c2ccc(Cl)cc2)cc(NC(=O)C2CC2)n1 [Example I-024] | – | 100% | –
– | 3.76 | 3.80 | N#Cc1ccc(CCNC(=O)c2cc(-c3ccc(C(F)(F)F)cc3)cc(NC(=O)C3CC3)n2)cc1 [Example I-046] | 83% | – | –
– | – | 4.68 | N#Cc1ccc(CNC(=O)c2cc(-c3ccc(OC(F)(F)F)cc3)cc(NC(=O)Cc3ccc(C(F)(F)F)cc3)n2)cc1 [Example I-260] | 100% | – | LOGP_NEUTRAL [1, 7]: 4.66; efficacy (caterpillars killed) (Spodoptera frugiperda; application rate 100 g/ha): 100%
– | 3.81 | 3.88 | CC(C)C(=O)Nc1cc(-c2ccc(C(F)(F)F)cc2)cc(C(=O)NCc2ccc(Cl)nc2)n1 [Example I-014] | 80% | – | –
3.09 | 3.00 | – | O=C(NC1CCS(=O)(=O)C1)c1cc(-c2ccc(OC(F)(F)F)cc2)cc(NC(=O)C2CC2)n1 (stereo not shown) [Example I-187] | 83% | – | –
3.55 | 3.46 | – | N#Cc1ccc(CNC(=O)c2cc(-c3ccc(SC(F)F)cc3)cc(NC(=O)C3CC3)n2)cc1 [Example I-180] | – | 100% | efficacy (beetle larvae killed) (Phaedon cochleariae; application rate 100 g/ha): 100%
4.16 | 4.01 | – | N#Cc1ccc(CNC(=O)c2cc(-c3ccc(OC(F)(F)F)cc3)cc(NC(=O)Cc3ccc([N+](=O)[O-])cc3)n2)cc1 [Example I-211] | 100% | – | efficacy (caterpillars killed) (Spodoptera frugiperda; application rate 100 g/ha): 83%
– | – | 4.24 | O=C(NCc1cccc(F)c1)c1cc(-c2ccc(C(F)(F)F)cc2)cc(NC(=O)C2CC2)n1 [Example I-003] | 83% | – | –
– | 4.53 | 4.67 | O=C(NCc1ccc(Cl)c(F)c1)c1cc(-c2ccc(OC(F)(F)F)cc2)cc(NC(=O)C2CC2)n1 [Example I-062] | 100% | – | efficacy (caterpillars killed) (Spodoptera frugiperda; application rate 100 g/ha): 83%
– | – | 2.97 | CONC(=O)c1cc(-c2ccc(OC(F)(F)F)cc2)cc(NC(=O)C2CC2)n1 [Example I-234] | – | 100% | LOGP_NEUTRAL [1, 7]: 2.89
4.35 | 4.22 | – | O=C(NC1CCCC1)c1cc(-c2ccc(OC(F)(F)F)cc2)cc(NC(=O)C2CC2)n1 [Example I-169] | 100% | – | efficacy (caterpillars killed) (Spodoptera frugiperda; application rate 100 g/ha): 100%
3.39 | 3.35 | – | CC(=O)N(C)c1cc(-c2ccc(OC(F)(F)F)cc2)cc(C(=O)NCc2ccc(C#N)cc2)n1 [Example I-220] | 100% | – | –
4.34 | 4.33 | – | O=C(NCc1ccc([N+](=O)[O-])cc1)c1cc(-c2ccc(C(F)(F)C(F)(F)F)c(F)c2)cc(NC(=O)C2CC2)n1 [Example I-209] | – | – | efficacy (beetle larvae killed) (Phaedon cochleariae; application rate 100 g/ha): 100%
– | 4.05 | 4.16 | CC(C)C(=O)Nc1cc(-c2ccc(C(F)(F)F)cc2)cc(C(=O)NCc2c(F)cc(C#N)cc2F)n1 [Example I-069] | – | 83% | –
3.68 | – | – | N#Cc1ccc2[nH]nc(NC(=O)c3cc(-c4ccc(OC(F)(F)F)cc4)cc(NC(=O)C4CC4)n3)c2c1 [Example I-166] | 83% | – | –
4.20 | 4.20 | – | CCN(C(=O)C(C)C)c1cc(-c2ccc(OC(F)(F)F)cc2)cc(C(=O)NCc2ccc(C#N)cc2)n1 [Example I-221] | – | – | efficacy (caterpillars killed) (Spodoptera frugiperda; application rate 100 g/ha): 80%
